Assay results taken from patent US10815274B2, “Immunogenic WT-1 peptides and methods of use thereof” (Memorial Sloan Kettering Cancer Center, priority 2012, dated 2020).
Where a SMILES comes first, the peptide text is derived from it.

How the values were obtained:
WT1- autologous APC = assay: Cr51 release assay, cytotoxic CTL response vs unmodified autologous APC; type: cell-based, human; settings: 50:1 E:T
[1] = system: WT1 peptide loaded autologous APC; assay: Cr51 release assay, cytotoxic CTL response vs peptide loaded autologous APC; type: cell-based, human; settings: 50:1 E:T
WT1- leukemia = assay: Cr51 release assay, cytotoxic CTL response vs WT1- leukemia; type: cell-based, human; settings: 50:1 E:T
WT1+ leukemia = assay: Cr51 release assay, cytotoxic CTL response vs WT1+ leukemia expressing restricting HLA allele; type: cell-based, human; settings: 50:1 E:T
[2] = system: WT1- allo APC with restricting HLA allele; assay: Cr51 release assay, cytotoxic CTL response vs unloaded allogeneic APC sharing restricting HLA allele; type: cell-based, human; settings: 50:1 E:T
PHA blasts = assay: Cr51 release assay, cytotoxic CTL response vs PHA blasts from the same leukemic patient; type: cell-based, human; settings: 50:1 E:T, PHA blasts from same patients as the leukemia
[3] = system: WT1+ allo APC with restricting HLA allele loaded with WT1 peptide; assay: Cr51 release assay, cytotoxic CTL response vs peptide loaded allogeneic APC sharing restricting HLA allele (HLA restriction); settings: 50:1 E:T

| Structure (SMILES) | Cytotoxic CTL response, % vs WT1- autologous APC (WT1- autologous APC; HLA allele A0201) | Cytotoxic CTL response, % vs WT1 peptide loaded autologous APC ([1]; HLA allele A0201) | Cytotoxic CTL response, % vs WT1- leukemia (WT1- leukemia; HLA allele A0201) | Cytotoxic CTL response, % vs WT1+ leukemia (WT1+ leukemia; HLA allele A0201) | Cytotoxic CTL response, % vs WT1- allo APC with restricting HLA allele ([2]; HLA allele A0201) | Cytotoxic CTL response, % vs WT1+ allo APC with restricting HLA allele loaded with WT1 peptide ([3]; HLA allele A0201) | Cytotoxic CTL response, % vs WT1- autologous APC (WT1- autologous APC; HLA allele B4001) | Cytotoxic CTL response, % vs WT1 peptide loaded autologous APC ([1]; HLA allele B4001) | Cytotoxic CTL response, % vs WT1- leukemia (WT1- leukemia; HLA allele B4001) | Cytotoxic CTL response, % vs WT1+ Leukemia (WT1+ leukemia; HLA allele B4001) | Cytotoxic CTL response, % vs WT1+ leukemia (WT1+ leukemia; HLA allele B4001) | Cytotoxic CTL response, % vs WT1- allo APC with restricting HLA allele ([2]; HLA allele B4001) | Cytotoxic CTL response, % vs PHA blasts (PHA blasts; HLA allele B4001) | Cytotoxic CTL response, % vs WT1+ allo APC with restricting HLA allele loaded with WT1 peptide ([3]; HLA allele B4001) | other results |
| --- | --- | --- | --- | --- | --- | --- | --- | --- | --- | --- | --- | --- | --- | --- | --- |
| CSCC[C@H](NC(=O)[C@H](CCC(N)=O)NC(=O)[C@H](CCC(N)=O)NC(=O)[C@@H]1CCCN1C(=O)[C@H](CCC(=O)O)NC(=O)[C@H](CO)NC(=O)CNC(=O)[C@H](CO)NC(=O)[C@H](C)N)C(=O)O [SEQ ID NO: 151] (H-ASGSEPQQM-OH; N-terminus and C-terminus assumed) | – | – | – | – | – | – | – | – | – | – | – | – | – | – | Cytotoxic CTL response, % vs WT1- autologous APC (WT1- autologous APC; HLA allele B3501): 5%; Cytotoxic CTL response, % vs WT1 peptide loaded autologous APC ([1]; HLA allele B3501): 73%; Cytotoxic CTL response, % vs WT1- leukemia (WT1- leukemia; HLA allele B3501): 5%; Cytotoxic CTL response, % vs WT1+ Leukemia (WT1+ leukemia; HLA allele B3501): 39%; Cytotoxic CTL response, % vs WT1+ leukemia (WT1+ leukemia; HLA allele B3501): 39%; Cytotoxic CTL response, % vs WT1- allo APC with restricting HLA allele ([2]; HLA allele B3501): 3%; Cytotoxic CTL response, % vs PHA blasts (PHA blasts; HLA allele B3501): 9%; Cytotoxic CTL response, % vs WT1+ allo APC with restricting HLA allele loaded with WT1 peptide ([3]; HLA allele B3501): 51% |
| CC(C)C[C@H](NC(=O)[C@H](C)NC(=O)[C@H](CS)NC(=O)CNC(=O)CN)C(=O)N1CCC[C@H]1C(=O)N[C@H](C(=O)N[C@@H](CO)C(=O)NCC(=O)N[C@@H](C)C(=O)O)C(C)C [SEQ ID NO: 153] (H-GGCALPVSGA-OH; N-terminus and C-terminus assumed) | 8% | 32% | 3% | 47% | 3% | 25% | – | – | – | – | – | – | – | – | Cytotoxic CTL response, % vs WT1+ Leukemia (WT1+ leukemia; HLA allele A0201): 47%; Cytotoxic CTL response, % vs PHA blasts (PHA blasts; HLA allele A0201): 6% |
| CC(C)C[C@H](NC(=O)[C@H](CO)NC(=O)CNC(=O)[C@H](Cc1ccc(O)cc1)NC(=O)[C@H](C)NC(=O)[C@@H](N)CO)C(=O)NCC(=O)NCC(=O)N1CCC[C@H]1C(=O)O [SEQ ID NO: 157] (H-SAYGSLGGP-OH; N-terminus and C-terminus assumed) | 2% | 51% | 0% | 0% | 5% | 31% | 2% | 41% | 3% | 68% | 68% | 8% | 3% | 24% | – |
| CC(C)C[C@H](NC(=O)[C@H](CC(N)=O)NC(=O)[C@H](CC(=O)O)NC(=O)[C@H](CO)NC(=O)[C@H](CO)NC(=O)[C@H](Cc1ccc(O)cc1)NC(=O)[C@@H]1CCCN1C(=O)[C@@H](NC(=O)[C@@H](N)CCCNC(=N)N)[C@@H](C)O)C(=O)O [SEQ ID NO: 169] (H-RTPYSSDNL-OH; N-terminus and C-terminus assumed) | – | – | – | – | – | – | – | – | – | – | – | – | – | – | Cytotoxic CTL response, % vs WT1- autologous APC (WT1- autologous APC; HLA allele B3503): 0%; Cytotoxic CTL response, % vs WT1- autologous APC (WT1- autologous APC; HLA allele C0401): 0%; Cytotoxic CTL response, % vs WT1 peptide loaded autologous APC ([1]; HLA allele B3503): 84%; Cytotoxic CTL response, % vs WT1 peptide loaded autologous APC ([1]; HLA allele C0401): 84%; Cytotoxic CTL response, % vs WT1- leukemia (WT1- leukemia; HLA allele B3503): 4%; Cytotoxic CTL response, % vs WT1- leukemia (WT1- leukemia; HLA allele C0401): 4%; Cytotoxic CTL response, % vs WT1+ Leukemia (WT1+ leukemia; HLA allele B3503): 48%; Cytotoxic CTL response, % vs WT1+ leukemia (WT1+ leukemia; HLA allele B3503): 48%; Cytotoxic CTL response, % vs WT1+ Leukemia (WT1+ leukemia; HLA allele C0401): 48%; Cytotoxic CTL response, % vs WT1+ leukemia (WT1+ leukemia; HLA allele C0401): 48%; Cytotoxic CTL response, % vs WT1- allo APC with restricting HLA allele ([2]; HLA allele B3503): 3%; Cytotoxic CTL response, % vs PHA blasts (PHA blasts; HLA allele B3503): 1%; Cytotoxic CTL response, % vs PHA blasts (PHA blasts; HLA allele C0401): 1%; Cytotoxic CTL response, % vs WT1+ allo APC with restricting HLA allele loaded with WT1 peptide ([3]; HLA allele B3503): 31% |
| CSCC[C@H](NC(=O)[C@@H](N)CC(N)=O)C(=O)N[C@@H](Cc1c[nH]cn1)C(=O)N[C@@H](CCC(N)=O)C(=O)N[C@@H](CCCNC(=N)N)C(=O)N[C@@H](CC(N)=O)C(=O)N[C@@H](Cc1c[nH]cn1)C(=O)N[C@H](C(=O)N[C@@H](CCCCN)C(=O)N[C@@H](CC(C)C)C(=O)O)[C@@H](C)O [SEQ ID NO: 183] (H-NMHQRNHTKL-OH; N-terminus and C-terminus assumed) | 2% | 40% | 0% | 0% | 4% | 32% | 0% | 31% | 3% | 72% | 72% | 1% | 1% | 26% | Cytotoxic CTL response, % vs WT1- autologous APC (WT1- autologous APC; HLA allele A2402): 19%; Cytotoxic CTL response, % vs WT1 peptide loaded autologous APC ([1]; HLA allele A2402): 47%; Cytotoxic CTL response, % vs WT1- leukemia (WT1- leukemia; HLA allele A2402): 0%; Cytotoxic CTL response, % vs WT1+ leukemia (WT1+ leukemia; HLA allele A2402): 0%; Cytotoxic CTL response, % vs WT1- allo APC with restricting HLA allele ([2]; HLA allele A2402): 13%; Cytotoxic CTL response, % vs WT1+ allo APC with restricting HLA allele loaded with WT1 peptide ([3]; HLA allele A2402): 27% |
